Patent publication US20250367209A1 (SOUTHERN RESEARCH INSTITUTE, priority 2022, published 2025)
Entries after “also recorded” stand apart in the source; their conditions may differ.

Legend:
Tau-FynSH3 interaction = Tau-FynSH3 interaction (Homo sapiens (Human), UniProt P10636); assay: Tau-Flag PLA, Tau-FynSH3; assay type: cell-based
Description: (§1) Tau-Flag PLA for Tau-SH3 interactions: To clone the SH3 constructs, a C-terminal Flag tag was added to the Tau construct using PCR, then the Tau sequence was replaced with the desired SH3 domain using In-Fusion HD cloning kit (Takara Bio). Next, an N-terminal GST tag was added to help expression using In-Fusion, resulting in GST-SH3-Flag plasmids. As a negative control, restriction enzymes were used to remove the FynSH3 from the FynSH3 construct, resulting in GST-Flag. All sequences were confirmed with Sanger sequencing, and expression in HEK-293 cells was verified by western blot and immunocytochemistry. Plating and experimental timeline was the same as above. Cells were transfected with 125 ng of Tau-mKate2 and 500 ng SH3 plasmid with 1.5 μL Fugene. compound no. 69 was applied to final concentration 15 μM. For Tau-SH3 PLA, we used Dako Tau (1:1000) and Flag (1:1000) primary antibodies.

Tau-PxxP5/6 = Tau-PxxP5/6 (Homo sapiens (Human), UniProt P10636); assay: Isothermal titration calorimetry, Tau-PxxP5/6 peptide; assay type: binding
Description: ITC experiments were performed on an Auto-iTC200 system (Malvern Instruments, Westborough, MA). ITC sample cell contained ˜120 μM full-length Tau, FynSH3, or Tau-PxxP5/6 (titrand), and the syringe contained 1 mM compound no. 69 (titrant). Each titration experiment consisted of 16 injections of […] of titrant into titrand at 25° C. Background mixing heat was determined from injections of titrant into the same buffer without titrand. Data analysis was performed using the built-in analysis module in Origin 7 provided by the ITC manufacturer. The normalized titration heat was fitted to a “one set of sites” model to determine the best-fit binding parameters.

Tau-SrcSH3 interaction = Tau-SrcSH3 interaction (Homo sapiens (Human), UniProt P10636); assay: Tau-Flag PLA, Tau-SrcSH3; assay type: cell-based; settings: 15 μM, HEK-293 cells
Description: as §1

Fyn kinase = Fyn kinase (Homo sapiens (Human), UniProt P06241); assay: Custom panel for Fyn kinase activity; assay type: biochemical; settings: 3 μM
Excerpt: 69 and compound no. […] Since Fyn was not included in that panel, a custom panel was completed for Fyn kinase activity.

primary neurons = assay: Multi-electrode array, Aβ-induced network hyperexcitability; assay type: cell-based, rat; settings: one hour preincubation, 500 nM Aβ oligomers, four hours
Excerpt: Primary neuron cultures: All animal procedures were approved by the Institutional Animal Care and Use Committee at the University of Alabama at Birmingham (UAB). As before (Rush, et al. (2020) Neurobiol Dis 134, 104668; Voskobiynyk, et al. (2020) eLife 9, e57354), primary rat neurons were isolated from timed-pregnant Sprague-Dawley rats. Briefly, dams were euthanized with isoflurane anesthesia asphyxiation, and hippocampal tissue was isolated from E19 embryos in Hibernate E, then digested in papain for 10 minutes at 37° C. Neurons were triturated into a single cell suspension in Neurobasal supplemented with B-27, L-Glutamine, and 10% FBS, then plated in 96-well plates coated with PDL and laminin at 30,000 neurons per well in 200 uL medium or in 24-well coated plates with or without coverslips at 50,000 per well. Cultures were maintained at 37° C. with 5% CO2. […]
Multi-electrode arrays: As in a prior study (Voskobiynyk, et al. (2020) eLife 9, e57354), 30,000 neurons were plated per well in a 48-well MEA plate. […] 69 for one hour, then 500 nM Aβ oligomers was applied and neurons were returned to the incubator for four hours before being recorded for 20 more minutes. […] Mean baseline frequency for each well was calculated from unit frequencies, then each unit in the post-treatment recording was normalized to the baseline average of its well. […]

Tau, Fyn = assay: Western blot of Tau, Fyn and GAPDH levels in neurons; assay type: cell-based, rat; settings: 15 μM, 24 hours
Description: Like before (Rush, et al. (2020) Neurobiol Dis 134, 104668), at DIV13, neurons were treated with 15 μM compound no. 69 or Vehicle. 24 hours later, cells were harvested in lysis buffer (50 mM Tris, 150 mM NaCl, 5 mM EDTA, 0.1% SDS, 0.1% Triton-X-100, and 0.5% sodium deoxycholate) and centrifuged to remove cellular debris. Samples were diluted in LDS and reducing agent and heated at 70° C. for 10 minutes. Samples were run on 4-12% bis-tris gels in MOPS buffer with 5 μg protein per well, determined by a Bradford assay, then transferred to a PDVF membrane. Membrane was blocked for 1 hour in 50% Odysey blocking buffer then probed overnight with Fyn3 (1:1000) antibody at 4° C. Membrane was washed 3× in TBST, then incubated for 1 hour at RT in IRDye 700 or 800 conjugated secondary and scanned on an Odyssey Scanner. Images were quantified in ImageJ. After probing for GAPDH (1:5,000), the blot was stripped with Restore PLUS Western Blot Sripping Buffer for 30 minutes at room temperature, washed in TBST, and probed for DAKO Tau (1:10,000).

Sequence of Tau-FynSH3 interaction (P10636 other isoform, or with tags, fused parts or gaps): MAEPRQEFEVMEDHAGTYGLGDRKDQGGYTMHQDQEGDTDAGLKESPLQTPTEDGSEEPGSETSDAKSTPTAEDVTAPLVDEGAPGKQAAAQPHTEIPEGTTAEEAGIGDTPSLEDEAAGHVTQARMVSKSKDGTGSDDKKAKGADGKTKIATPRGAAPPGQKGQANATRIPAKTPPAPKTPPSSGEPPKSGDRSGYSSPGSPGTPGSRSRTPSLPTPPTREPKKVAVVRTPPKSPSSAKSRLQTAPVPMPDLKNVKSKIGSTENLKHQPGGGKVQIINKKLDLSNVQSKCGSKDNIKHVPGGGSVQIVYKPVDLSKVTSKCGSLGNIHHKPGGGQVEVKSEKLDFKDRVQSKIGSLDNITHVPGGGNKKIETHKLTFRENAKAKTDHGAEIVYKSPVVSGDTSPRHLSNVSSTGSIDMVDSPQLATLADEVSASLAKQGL
Sequence of Tau-SrcSH3 interaction (P10636 other isoform, or with tags, fused parts or gaps): as above
Sequence of Fyn kinase (P06241 whole entry): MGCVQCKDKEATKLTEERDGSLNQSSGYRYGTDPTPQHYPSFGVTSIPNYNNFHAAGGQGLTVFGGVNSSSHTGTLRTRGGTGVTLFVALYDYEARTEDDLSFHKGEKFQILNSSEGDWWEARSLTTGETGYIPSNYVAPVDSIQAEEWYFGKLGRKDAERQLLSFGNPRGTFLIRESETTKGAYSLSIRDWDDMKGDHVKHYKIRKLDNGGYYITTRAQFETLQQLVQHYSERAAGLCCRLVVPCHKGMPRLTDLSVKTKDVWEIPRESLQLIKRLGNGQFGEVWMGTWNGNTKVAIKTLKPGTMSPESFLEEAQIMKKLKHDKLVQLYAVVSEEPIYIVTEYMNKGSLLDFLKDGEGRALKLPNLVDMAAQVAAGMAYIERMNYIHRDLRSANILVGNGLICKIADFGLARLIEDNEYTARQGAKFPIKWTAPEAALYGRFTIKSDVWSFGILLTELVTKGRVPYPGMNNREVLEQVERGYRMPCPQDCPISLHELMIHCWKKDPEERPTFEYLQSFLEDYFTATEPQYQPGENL

O=C(CN1CCOc2ccccc21)Nc1nnc(-c2ccccn2)[nH]1 [compound no. 69]
Tau-FynSH3 interaction, Tau-Flag PLA (in words) (Tau-FynSH3 interaction; 15 μM, HEK-293 cells): inhibited | inhibition at 15 µM (Tau-FynSH3 interaction; HEK293, HEK-293 cells): 37% | interaction with Tau-PxxP5/6 peptide, ITC (Tau-PxxP5/6): No interaction was observed | Tau-SrcSH3 interaction, Tau-Flag PLA (Tau-SrcSH3 interaction): slightly but insignificantly inhibited; also recorded: does not inhibit Tau-SrcSH3 interaction | Fyn kinase inhibition (Fyn kinase): did not inhibit Fyn | Aβ-induced network hyperexcitability, multi-electrode array (primary neurons): prevented Aβ-induced network8hyperexcitability at both 3 and 15 μM; also recorded: ameliorates Aβ-induced network hyperexcitability | Tau, Fyn (and GAPDH) levels in primary neurons (Tau, Fyn): did not lower Tau or Fyn levels; also recorded: does not reduce Tau, Fyn, or GAPDH levels
